“And” between values parts separate entries of the source, which are not always exact repeats. Identical values can stand only once. Inconclusive results and toxic doses are left out.

The assay deals with L1210 leukemia iv in BDF1 mice, survival T/C. The assay can be described thus: NCI In Vivo Anticancer Drug Screen. Data for tumor model L1210 Leukemia (intravenous) in B6D2F1 (BDF1) mice. The note with it: endpoint: mean survival time, higher = longer survival. The procedure:
The antitumor activity of compounds was measured in mice bearing transplantable tumors. Survival or tumor size were measured and the results are expressed as the measurement made in the treated group (T) divided by the measurement made in the vehicle treated control group (C). The tumor model used in this assay is L1210 Leukemia (intravenous) in B6D2F1 (BDF1) mice

Where [1] appears, read: dose: 3.7 mg/kg/injection, schedule: Q01DX001 (ip), vehicle: other.
[2] abbreviates: dose: 7.0 mg/kg/injection, schedule: Q01DX001 (ip), vehicle: other.
[3] abbreviates: dose: 15.0 mg/kg/injection, schedule: Q01DX001 (ip), vehicle: other.
[4] abbreviates: dose: 31.0 mg/kg/injection, schedule: Q01DX001 (ip), vehicle: other.
Where [5] appears, read: dose: 62.0 mg/kg/injection, schedule: Q01DX001 (ip), vehicle: other.
The mark [6] stands for this setting: dose: 4.0 mg/kg/injection, schedule: Q01DX001 (ip), vehicle: other.
[7] abbreviates: dose: 8.0 mg/kg/injection, schedule: Q01DX001 (ip), vehicle: other.
The mark [8] stands for this setting: dose: 16.0 mg/kg/injection, schedule: Q01DX001 (ip), vehicle: other.

Turning to `O=NN(CCF)C(=O)NC1CSCSC1`, the T/C under setting [1] was 124 % of control; the T/C under setting [2] is 186 % of control and 204 % of control; the T/C under setting [3] is 351 % of control and 417 % of control; the T/C under setting [4] is 582 % of control and 744 % of control; the T/C under setting [5] is 433 % of control and 846 % of control.

As for `O=NN(CCCl)C(=O)NC1CCC(=O)NC1=O` (stereo unspecified), the T/C under setting [6] is 162 % of control and 175 % of control; the T/C under setting [7] was 244 % of control and 260 % of control; the T/C (dose: 17.0 mg/kg/injection, schedule: Q01DX001 (ip), vehicle: other) is 380 % of control and 428 % of control; the T/C (dose: 35.0 mg/kg/injection, schedule: Q01DX001 (ip), vehicle: other) was 395 % of control and 570 % of control.

In the case of `O=NN(CCF)C(=O)NC1CCSCC1`, the T/C by setting is: under setting [1], 154 % of control; under setting [2], 206 % of control and 227 % of control; under setting [3], 365 % of control and 575 % of control; under setting [4], 634 % of control and 642 % of control; under setting [5], 515 % of control and 856 % of control.

As for `O=NN(CCCl)C(=O)N[C@H]1CCCC[C@@H]1Cl`, the T/C was 108 % of control and 121 % of control (dose: 5.0 mg/kg/injection, schedule: Q01DX001 (ip), vehicle: other); 153 % of control and 160 % of control under setting [3]; 319 % of control (dose: 20.0 mg/kg/injection, schedule: Q04DX004 (ip), vehicle: other); 514 % of control (dose: 30.0 mg/kg/injection, schedule: Q01DX001 (ip), vehicle: other); 95 % of control (dose: 30.0 mg/kg/injection, schedule: Q04DX004 (ip), vehicle: other); 558 % of control and 564 % of control (dose: 41.0 mg/kg/injection, schedule: Q01DX001 (ip), vehicle: other). The T/C (dose: 45.0 mg/kg/injection, schedule: Q01DX001 (ip), vehicle: other) was 819 % of control; the T/C (dose: 45.0 mg/kg/injection, schedule: Q04DX004 (ip), vehicle: other) is 512 % of control; the T/C (dose: 75.0 mg/kg/injection, schedule: Q01DX001 (ip), vehicle: other) was 583 % of control and 650 % of control and 652 % of control; the T/C (dose: 83.0 mg/kg/injection, schedule: Q01DX001 (ip), vehicle: other) was 376 % of control and 553 % of control; the T/C (dose: 90.0 mg/kg/injection, schedule: Q01DX001 (ip), vehicle: other) was 460 % of control.

On to `O=NN(CCCl)C(=O)NC1CCS(=O)(=O)C1` (stereo unspecified) (tested in a mixture with another compound), for which the T/C by setting is: under setting [2], 267 % of control; (dose: 11.0 mg/kg/injection, schedule: Q01DX001 (ip), vehicle: other) 239 % of control; (dose: 14.0 mg/kg/injection, schedule: Q01DX001 (oral), vehicle: other) 276 % of control; under setting [8], 281 % of control; (dose: 22.0 mg/kg/injection, schedule: Q01DX001 (oral), vehicle: other) 474 % of control; (dose: 24.0 mg/kg/injection, schedule: Q01DX001 (ip), vehicle: other) 281 % of control. In addition, the T/C (dose: 32.0 mg/kg/injection, schedule: Q01DX001 (oral), vehicle: other) is 495 % of control; the T/C (dose: 36.0 mg/kg/injection, schedule: Q01DX001 (ip), vehicle: other) was 232 % of control; the T/C (dose: 48.0 mg/kg/injection, schedule: Q01DX001 (oral), vehicle: other) is 253 % of control; the T/C (dose: 72.0 mg/kg/injection, schedule: Q01DX001 (oral), vehicle: other) is 213 % of control.

`COc1cc([C@@H]2c3cc4c(cc3[C@@H](OC3OC5COC(C)OC5C(O)C3O)[C@H]3COC(=O)[C@H]23)OCO4)cc(OC)c1O` (stereo partly specified): the T/C is, setting by setting: (dose: 12.0 mg/kg/injection, schedule: Q04DX003 (ip), vehicle: saline) 117 % of control; (dose: 40.0 mg/kg/injection, schedule: Q04DX003 (ip), vehicle: saline) 297 % of control; (dose: 60.0 mg/kg/injection, schedule: Q04DX003 (ip), vehicle: saline) 447 % of control.

As for `O=c1[nH]cc(F)c(=O)[nH]1`, the T/C is 109 % of control (dose: 10.0 mg/kg/injection, schedule: Q01DX005 (ip), vehicle: saline); 120 % of control (dose: 20.0 mg/kg/injection, schedule: Q01DX005 (ip), vehicle: saline); 152 % of control (dose: 40.0 mg/kg/injection, schedule: Q01DX005 (ip), vehicle: saline); 183 % of control (dose: 50.0 mg/kg/injection, schedule: Q01DX005 (ip), vehicle: saline); 182 % of control and 186 % of control (dose: 60.0 mg/kg/injection, schedule: Q01DX005 (ip), vehicle: saline); 150 % of control (dose: 120.0 mg/kg/injection, schedule: Q01DX001 (ip), vehicle: water). Moreover, the T/C was 154 % of control (dose: 150.0 mg/kg/injection, schedule: Q01DX001 (ip), vehicle: water) and 180 % of control (dose: 180.0 mg/kg/injection, schedule: Q01DX001 (ip), vehicle: water).

With `N[C@@H](Cc1ccc(N(CCCl)CCCl)cc1)C(=O)O`, the T/C by setting is: (dose: 0.1 mg/kg/injection, schedule: Q01DX015 (ip), vehicle: carboxymethylcellulose (CMC)) 94 % of control and 103 % of control; (dose: 0.2 mg/kg/injection, schedule: Q01DX015 (ip), vehicle: carboxymethylcellulose (CMC)) 107 % of control and 96 % of control; (dose: 0.4 mg/kg/injection, schedule: Q01DX015 (ip), vehicle: carboxymethylcellulose (CMC)) 107 % of control and 98 % of control; (dose: 0.8 mg/kg/injection, schedule: Q01DX015 (ip), vehicle: carboxymethylcellulose (CMC)) 100 % of control and 103 % of control; (dose: 1.13 mg/kg/injection, schedule: Q01DX001 (ip), vehicle: carboxymethylcellulose (CMC)) 105 % of control; (dose: 1.6 mg/kg/injection, schedule: Q01DX015 (ip), vehicle: carboxymethylcellulose (CMC)) 107 % of control and 101 % of control. Moreover, the T/C was 95 % of control and 102 % of control (dose: 1.7 mg/kg/injection, schedule: Q01DX001 (ip), vehicle: carboxymethylcellulose (CMC)); 109 % of control and 96 % of control (dose: 2.25 mg/kg/injection, schedule: Q01DX001 (ip), vehicle: carboxymethylcellulose (CMC)); 106 % of control and 97 % of control (dose: 3.0 mg/kg/injection, schedule: Q01DX001 (ip), vehicle: carboxymethylcellulose (CMC)); 105 % of control and 113 % of control (dose: 4.5 mg/kg/injection, schedule: Q01DX001 (ip), vehicle: carboxymethylcellulose (CMC)); 104 % of control and 105 % of control (dose: 4.75 mg/kg/injection, schedule: Q01DX001 (ip), vehicle: Klucel (hydroxypropylcellulose) (HPC)); 105 % of control (dose: 7.0 mg/kg/injection, schedule: Q01DX001 (ip), vehicle: carboxymethylcellulose (CMC)). The T/C runs as follows: (dose: 9.0 mg/kg/injection, schedule: Q01DX001 (ip), vehicle: carboxymethylcellulose (CMC)) 155 % of control; (dose: 14.0 mg/kg/injection, schedule: Q01DX001 (ip), vehicle: carboxymethylcellulose (CMC)) 181 % of control; (dose: 14.25 mg/kg/injection, schedule: Q01DX001 (ip), vehicle: Klucel (hydroxypropylcellulose) (HPC)) 177 % of control; (dose: 15.0 mg/kg/injection, schedule: Q01DX001 (ip), vehicle: saline) 163 % of control and 195 % of control; (dose: 18.0 mg/kg/injection, schedule: Q01DX001 (ip), vehicle: carboxymethylcellulose (CMC)) 190 % of control and 255 % of control; (dose: 19.0 mg/kg/injection, schedule: Q01DX001 (ip), vehicle: Klucel (hydroxypropylcellulose) (HPC)) 214 % of control and 215 % of control. Besides, the T/C (dose: 23.75 mg/kg/injection, schedule: Q01DX001 (ip), vehicle: Klucel (hydroxypropylcellulose) (HPC)) was 177 % of control and the T/C (dose: 29.0 mg/kg/injection, schedule: Q01DX001 (ip), vehicle: carboxymethylcellulose (CMC)) is 206 % of control.

In the case of `CCOC(=O)C1CCC(NC(=O)N(CCCl)N=O)CC1` (stereo unspecified), the T/C reads like this: under setting [6], 113 % of control and 100 % of control; under setting [7], 116 % of control; (dose: 8.6 mg/kg/injection, schedule: Q04DX004 (ip), vehicle: gum acacia) 274 % of control and 275 % of control; (dose: 13.0 mg/kg/injection, schedule: Q04DX004 (ip), vehicle: gum acacia) 254 % of control; under setting [8], 162 % of control and 193 % of control; (dose: 20.0 mg/kg/injection, schedule: Q04DX004 (ip), vehicle: gum acacia) 837 % of control. For the same compound, the T/C reads like this: (dose: 30.0 mg/kg/injection, schedule: Q04DX004 (ip), vehicle: gum acacia) 1010 % of control; (dose: 33.0 mg/kg/injection, schedule: Q01DX001 (ip), vehicle: other) 465 % of control and 302 % of control; (dose: 66.0 mg/kg/injection, schedule: Q01DX001 (ip), vehicle: other) 663 % of control and 330 % of control.

For `O=c1[nH]c(=O)n(C2CC(O)C(CO)O2)cc1F` (stereo unspecified), where the note is “dose: 400.0 mg/kg/injection, schedule: Q01DX001 (ip), vehicle: saline”, the T/C is 122 % of control.

The values are drawn from PubChem BioAssay AID254 (DTP/NCI, 2004).
